# Experimental data taken from the supplement of paper PMC10307832.
# Tests used:
# Assay in all cases: relative viability (nuclei count vs DMSO), 5 days (fraction); higher = more cells survive
# NCI-H838 = test system: NCI-H838
# Method in brief: (§1)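 One day after seeding in 1536-well plates, lung cancer cell lines were dosed by pin tool. Dosing was either single-drug or a fixed anchor-drug dose plus five library-drug doses (not always all listed) in √10 steps. After 5 days, nuclei were stained in one fix-and-stain step and counted on 4× images, and relative viability is the nuclei count of treated wells over that of vehicle wells, given as the median of duplicate plates.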
# UMC-11 = test system: UMC-11
# Method in brief: as §1
# NCI-H1944 = test system: NCI-H1944
# Method in brief: as §1
# H3255 = test system: H3255
# Method in brief: as §1
# LC-2-ad = test system: LC-2-ad
# Method in brief: as §1
# NCI-H2087 = test system: NCI-H2087
# Method in brief: as §1
# ChaGo-K-1 = test system: ChaGo-K-1
# Method in brief: as §1
# SK-MES-1 = test system: SK-MES-1
# Method in brief: as §1
# HCC-15 = test system: HCC-15
# Method in brief: as §1
# LCLC-97TM1 = test system: LCLC-97TM1
# Method in brief: as §1
# LXF-289 = test system: LXF-289
# Method in brief: as §1
# NCI-H1666 = test system: NCI-H1666
# Method in brief: as §1
# LK-2 = test system: LK-2
# Method in brief: as §1
# BEN = test system: BEN
# Method in brief: as §1
# HCC-78 = test system: HCC-78
# Method in brief: as §1
# NCI-H1651 = test system: NCI-H1651
# Method in brief: as §1
# LU99A = test system: LU99A
# Method in brief: as §1
# NCI-H322M = test system: NCI-H322M
# Method in brief: as §1
# PC-3 [JPC-3] = test system: PC-3 [JPC-3]
# Method in brief: as §1
# NCI-H596 = test system: NCI-H596
# Method in brief: as §1
# NCI-H661 = test system: NCI-H661
# Method in brief: as §1
# NCI-H650 = test system: NCI-H650
# Method in brief: as §1
smiles,measurement,setting,value
CC(C)Oc1cc(Nc2nc(N[C@@H](C)c3ccc(F)cn3)ncc2Cl)n[nH]1 [AZ23] + CC1(C)CCC(c2ccc(Cl)cc2)=C(CN2CCN(c3ccc(C(=O)NS(=O)(=O)c4ccc(N[C@H](CCN5CCOCC5)CSc5ccccc5)c(S(=O)(=O)C(F)(F)F)c4)cc3)CC2)C1 [Navitoclax] (partner 0.5 µM),relative viability,NCI-H838; first compound 0.01 µM,1.15
same,relative viability,NCI-H838; first compound 0.03162 µM,1.45
same,relative viability,NCI-H838; first compound 0.3162 µM,1.19
same,relative viability,UMC-11; first compound 0.01 µM,0.271
same,relative viability,UMC-11; first compound 0.03162 µM,0.334
same,relative viability,UMC-11; first compound 0.3162 µM,0.304
same,relative viability,NCI-H1944; first compound 0.01 µM,0.985
same,relative viability,NCI-H1944; first compound 0.03162 µM,1.07
same,relative viability,NCI-H1944; first compound 0.3162 µM,1.01
same,relative viability,H3255; first compound 0.01 µM,0.514
same,relative viability,H3255; first compound 0.03162 µM,0.677
same,relative viability,H3255; first compound 0.3162 µM,0.556
same,relative viability,LC-2-ad; first compound 0.01 µM,0.386
same,relative viability,LC-2-ad; first compound 0.03162 µM,0.474
same,relative viability,LC-2-ad; first compound 0.3162 µM,0.415
same,relative viability,NCI-H2087; first compound 0.01 µM,1.14
same,relative viability,NCI-H2087; first compound 0.03162 µM,1.12
same,relative viability,NCI-H2087; first compound 0.3162 µM,0.914
same,relative viability,ChaGo-K-1; first compound 0.01 µM,0.782
same,relative viability,ChaGo-K-1; first compound 0.03162 µM,1.23
same,relative viability,ChaGo-K-1; first compound 0.3162 µM,0.949
same,relative viability,SK-MES-1; first compound 0.01 µM,1.4
same,relative viability,SK-MES-1; first compound 0.03162 µM,1.42
same,relative viability,SK-MES-1; first compound 0.3162 µM,1.33
same,relative viability,HCC-15; first compound 0.01 µM,0.744
same,relative viability,HCC-15; first compound 0.03162 µM,0.798
same,relative viability,HCC-15; first compound 0.3162 µM,0.71
same,relative viability,LCLC-97TM1; first compound 0.01 µM,0.381
same,relative viability,LCLC-97TM1; first compound 0.03162 µM,0.364
same,relative viability,LCLC-97TM1; first compound 0.3162 µM,0.603
same,relative viability,LXF-289; first compound 0.01 µM,1.08
same,relative viability,LXF-289; first compound 0.03162 µM,0.951
same,relative viability,LXF-289; first compound 0.3162 µM,0.888
same,relative viability,NCI-H1666; first compound 0.01 µM,0.79
same,relative viability,NCI-H1666; first compound 0.03162 µM,0.827
same,relative viability,NCI-H1666; first compound 0.3162 µM,1
same,relative viability,LK-2; first compound 0.01 µM,0.653
same,relative viability,LK-2; first compound 0.03162 µM,0.915
same,relative viability,LK-2; first compound 0.3162 µM,0.909
same,relative viability,BEN; first compound 0.01 µM,0.0781
same,relative viability,BEN; first compound 0.03162 µM,0.0578
same,relative viability,BEN; first compound 0.3162 µM,0.0639
same,relative viability,HCC-78; first compound 0.01 µM,0.617
same,relative viability,HCC-78; first compound 0.03162 µM,0.662
same,relative viability,HCC-78; first compound 0.3162 µM,0.488
same,relative viability,NCI-H1651; first compound 0.01 µM,0.887
same,relative viability,NCI-H1651; first compound 0.03162 µM,1.11
same,relative viability,NCI-H1651; first compound 0.3162 µM,1.11
same,relative viability,LU99A; first compound 0.01 µM,0.758
same,relative viability,LU99A; first compound 0.03162 µM,0.82
same,relative viability,LU99A; first compound 0.3162 µM,0.701
same,relative viability,NCI-H322M; first compound 0.01 µM,1.24
same,relative viability,NCI-H322M; first compound 0.03162 µM,1.09
same,relative viability,NCI-H322M; first compound 0.3162 µM,1.29
same,relative viability,PC-3 [JPC-3]; first compound 0.01 µM,0.881
same,relative viability,PC-3 [JPC-3]; first compound 0.03162 µM,0.863
same,relative viability,PC-3 [JPC-3]; first compound 0.3162 µM,0.762
same,relative viability,NCI-H596; first compound 0.01 µM,0.854
same,relative viability,NCI-H596; first compound 0.03162 µM,1.04
same,relative viability,NCI-H596; first compound 0.3162 µM,0.747
CC(C)Oc1cc(Nc2nc(N[C@@H](C)c3ccc(F)cn3)ncc2Cl)n[nH]1 [AZ23] + CC(C)C[C@H](NC(=O)[C@H](Cc1ccccc1)NC(=O)c1cnccn1)B(O)O [Bortezomib] (partner 0.002 µM),relative viability,NCI-H838; first compound 0.01 µM,0.772
same,relative viability,NCI-H838; first compound 0.03162 µM,0.702
same,relative viability,NCI-H838; first compound 0.3162 µM,0.757
same,relative viability,UMC-11; first compound 0.01 µM,0.766
same,relative viability,UMC-11; first compound 0.03162 µM,0.86
same,relative viability,UMC-11; first compound 0.3162 µM,0.808
same,relative viability,H3255; first compound 0.01 µM,0.64
same,relative viability,H3255; first compound 0.03162 µM,1.06
same,relative viability,H3255; first compound 0.3162 µM,0.81
same,relative viability,LC-2-ad; first compound 0.01 µM,1.16
same,relative viability,LC-2-ad; first compound 0.03162 µM,1.2
same,relative viability,LC-2-ad; first compound 0.3162 µM,1.01
same,relative viability,NCI-H2087; first compound 0.01 µM,1.3
same,relative viability,NCI-H2087; first compound 0.03162 µM,0.962
same,relative viability,NCI-H2087; first compound 0.3162 µM,0.778
same,relative viability,ChaGo-K-1; first compound 0.01 µM,0.96
same,relative viability,ChaGo-K-1; first compound 0.03162 µM,1.22
same,relative viability,ChaGo-K-1; first compound 0.3162 µM,1.16
same,relative viability,HCC-15; first compound 0.01 µM,1.38
same,relative viability,HCC-15; first compound 0.03162 µM,1.09
same,relative viability,HCC-15; first compound 0.3162 µM,1.16
same,relative viability,LCLC-97TM1; first compound 0.01 µM,0.277
same,relative viability,LCLC-97TM1; first compound 0.03162 µM,1
same,relative viability,LCLC-97TM1; first compound 0.3162 µM,0.755
same,relative viability,LXF-289; first compound 0.01 µM,1.11
same,relative viability,LXF-289; first compound 0.03162 µM,1.05
same,relative viability,LXF-289; first compound 0.3162 µM,0.979
same,relative viability,NCI-H1666; first compound 0.01 µM,0.725
same,relative viability,NCI-H1666; first compound 0.03162 µM,0.878
same,relative viability,NCI-H1666; first compound 0.3162 µM,0.889
same,relative viability,BEN; first compound 0.01 µM,0.817
same,relative viability,BEN; first compound 0.03162 µM,1.08
same,relative viability,BEN; first compound 0.3162 µM,0.867
same,relative viability,HCC-78; first compound 0.01 µM,0.395
same,relative viability,HCC-78; first compound 0.03162 µM,0.507
same,relative viability,HCC-78; first compound 0.3162 µM,0.335
same,relative viability,NCI-H1651; first compound 0.01 µM,0.957
same,relative viability,NCI-H1651; first compound 0.03162 µM,1.02
same,relative viability,NCI-H1651; first compound 0.3162 µM,1.01
same,relative viability,LU99A; first compound 0.01 µM,1.13
same,relative viability,LU99A; first compound 0.03162 µM,1.2
same,relative viability,LU99A; first compound 0.3162 µM,1.13
same,relative viability,NCI-H661; first compound 0.01 µM,0.828
same,relative viability,NCI-H661; first compound 0.03162 µM,0.845
same,relative viability,NCI-H661; first compound 0.3162 µM,0.773
same,relative viability,NCI-H322M; first compound 0.01 µM,1.2
same,relative viability,NCI-H322M; first compound 0.03162 µM,1.32
same,relative viability,NCI-H322M; first compound 0.3162 µM,1.19
same,relative viability,PC-3 [JPC-3]; first compound 0.01 µM,0.893
same,relative viability,PC-3 [JPC-3]; first compound 0.03162 µM,1.01
same,relative viability,PC-3 [JPC-3]; first compound 0.3162 µM,0.887
same,relative viability,NCI-H596; first compound 0.01 µM,1.17
same,relative viability,NCI-H596; first compound 0.03162 µM,1.06
same,relative viability,NCI-H596; first compound 0.3162 µM,1.1
same,relative viability,NCI-H650; first compound 0.01 µM,0.71
same,relative viability,NCI-H650; first compound 0.03162 µM,0.946
same,relative viability,NCI-H650; first compound 0.3162 µM,0.84
